Data from ChEMBL document CHEMBL5727462, “Benzimidazole derivates useful as inhibitors of mammalian histone deacetylase activity” (2019).

Target: T1, Protein deacetylase HDAC6 (Homo sapiens, UniProt Q9UBN7)
T1 sequence (Q9UBN7 whole entry): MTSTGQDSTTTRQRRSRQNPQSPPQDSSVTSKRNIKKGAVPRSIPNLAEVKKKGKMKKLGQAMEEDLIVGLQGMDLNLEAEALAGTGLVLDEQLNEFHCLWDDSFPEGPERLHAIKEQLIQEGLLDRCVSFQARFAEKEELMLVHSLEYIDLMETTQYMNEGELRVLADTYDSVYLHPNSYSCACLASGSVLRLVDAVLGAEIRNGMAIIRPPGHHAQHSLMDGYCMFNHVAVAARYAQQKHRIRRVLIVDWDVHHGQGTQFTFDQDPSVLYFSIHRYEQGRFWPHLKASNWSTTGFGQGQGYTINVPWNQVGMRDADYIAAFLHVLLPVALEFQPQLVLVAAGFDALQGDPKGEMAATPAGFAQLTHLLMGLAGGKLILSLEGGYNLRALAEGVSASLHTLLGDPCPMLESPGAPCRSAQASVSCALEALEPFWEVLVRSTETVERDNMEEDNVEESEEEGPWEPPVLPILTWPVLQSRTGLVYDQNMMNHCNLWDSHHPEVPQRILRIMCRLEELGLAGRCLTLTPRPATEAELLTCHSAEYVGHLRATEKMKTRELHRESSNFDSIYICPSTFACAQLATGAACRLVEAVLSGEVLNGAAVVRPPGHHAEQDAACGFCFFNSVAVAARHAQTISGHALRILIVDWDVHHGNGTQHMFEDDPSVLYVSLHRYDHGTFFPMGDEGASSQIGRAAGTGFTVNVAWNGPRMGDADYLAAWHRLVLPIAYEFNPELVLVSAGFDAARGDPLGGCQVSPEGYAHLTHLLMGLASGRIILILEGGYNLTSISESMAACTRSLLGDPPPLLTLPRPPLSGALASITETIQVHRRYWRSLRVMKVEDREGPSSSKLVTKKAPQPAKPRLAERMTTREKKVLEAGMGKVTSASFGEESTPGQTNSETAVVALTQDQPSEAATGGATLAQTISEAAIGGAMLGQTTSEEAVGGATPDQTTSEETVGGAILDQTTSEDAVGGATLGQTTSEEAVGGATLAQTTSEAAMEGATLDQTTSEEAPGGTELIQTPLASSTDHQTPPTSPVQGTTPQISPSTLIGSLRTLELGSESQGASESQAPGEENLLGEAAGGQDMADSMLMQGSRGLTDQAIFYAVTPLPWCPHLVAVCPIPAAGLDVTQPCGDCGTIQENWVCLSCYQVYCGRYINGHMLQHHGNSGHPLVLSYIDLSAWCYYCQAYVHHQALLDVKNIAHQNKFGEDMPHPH
Test: In vitro enzymatic HDACs assays: All Examples were tested in HDAC1, 2, 3, 6 and 8 in vitro enzymatic assays. The assay principle is well known (Hauser et al. 2009, Bradner et al. 2010) and all necessary reagents like enzymes, substrates, developer and reference compounds are commercially available (see e.g. BPS Biosciences http://www.bpsbioscience.com/). A series of dilutions of the compounds were prepared with a top concentration of 200 μM (2 μM for HDAC6). The enzymatic reactions were conducted in a mixture containing assay buffer, bovine serum albumin, HDAC substrate, and a test compound. After enzymatic reaction, developer was added and after an additional incubation time, fluorescence intensity was measured at an excitation wavelength of 360 nm and an emission wavelength of 460 nm. A selection of the Examples were tested in a full HDAC panel containing HDAC1, 2, 3, 4, 5, 6, 7, 8, 9, 10 and 11 in vitro enzymatic assays. The tests were performed as above except that a series of dilutions of the compounds were prepared with a top concentration of 10 μM for all HDACs.

- IC50: 19 nM
SMILES: O=C(NO)c1ccc2nc(-c3ccc(-c4ccccc4)c(F)c3)[nH]c2c1
